For test [1], the target named is Telomerase reverse transcriptase (Homo sapiens) (UniProt O14746). The experiment in a line: Inhibition of human TERT-regulated Wnt/beta-catenin signalling in human MGC803 cells assessed as decrease in cyclin D1 protein expression at 40 umol/L measured at 48 hrs by Western blotting method. In kind it is cell-based. The settings on record: MGC-803.
The target is the same in test [2]. The experiment in a line: Inhibition of human TERT-regulated Wnt/beta-catenin signalling in human MGC803 cells assessed as decrease in cyclin D1 mRNA expression at 40 umol/L measured at 48 hrs by RT-PCR method. In kind it is cell-based. Conditions: MGC-803.
Test [3] shares this target. As to the kind of experiment: Inhibition of human TERT protein expression in human MGC803 cells at 40 umol/L measured at 48 hrs by Western blotting method. In kind it is cell-based. The settings on record: MGC-803.
Test [4] shares this target. As to the kind of experiment: Inhibition of human TERT-regulated Wnt/beta-catenin signalling in human MGC803 cells assessed as decrease in c-myc mRNA expression at 40 umol/L measured at 48 hrs by RT-PCR method. In kind it is cell-based. The settings on record: MGC-803.
Test [5] has the same target. The experiment in a line: Inhibition of human TERT-regulated Wnt/beta-catenin signalling in human MGC803 cells assessed as decrease in beta-catenin mRNA expression at 40 umol/L measured at 48 hrs by RT-PCR method. In kind it is cell-based. The settings on record: MGC-803.
Test [6] has the same target. As to the kind of experiment: Inhibition of human TERT-regulated Wnt/beta-catenin signalling in human MGC803 cells assessed as decrease in beta-catenin protein expression at 40 umol/L measured at 48 hrs by Western blotting method. In kind it is cell-based. Conditions: MGC-803. (In general: Immunoblotting shows a protein as a band on a membrane.)
A short description of test [7]: Inhibition of human TERT mRNA expression in human MGC803 cells at 40 umol/L measured at 48 hrs by RT-PCR method. Conditions: MGC-803. In kind it is functional, cell-based.
The target in test [8] is Telomerase reverse transcriptase (Homo sapiens) (UniProt O14746). The experiment in a line: Inhibition of human TERT-regulated Wnt/beta-catenin signalling in human MGC803 cells assessed as decrease in c-myc protein expression at 40 umol/L measured at 48 hrs by Western blotting method. The settings on record: MGC-803. The class given is cell-based.
A short description of test [9]: Antiproliferative activity against human SGC7901 cells after 48 hrs by MTT assay. In kind it is functional, cell-based. Conditions: SGC-7901, 48 h. In general terms: Formazan colour is commonly taken as a measure of viable cells.
The nature of test [10]: Antiproliferative activity against human MGC803 cells after 48 hrs by MTT assay. The class given is functional, cell-based. The settings on record: MGC-803, 48 h.
Test [11] in a line: Antiproliferative activity against human PC3 cells after 48 hrs by MTT assay. In kind it is functional, cell-based. The settings on record: PC-3, 48 h.
The subject of the next test is Bcap37. The experiment in a line: Antiproliferative activity against human Bcap37 cells after 48 hrs by MTT assay. The class given is functional, cell-based. The settings on record: Bcap37, 48 h.
The target of test [12] is Telomerase reverse transcriptase (Homo sapiens) (UniProt O14746). The experiment in a line: Inhibition of human TERT protein expression in human MGC803 cells at 1 uM after 48 hrs by Western blotting method. The class given is cell-based. Conditions: MGC-803.
The target is the same in test [13]. The experiment in a line: Inhibition of human TERT-regulated Wnt/beta-catenin signalling in human MGC803 cells assessed as downregulation of c-myc protein expression after 48 hrs by Western blotting method. In kind it is cell-based. Conditions: MGC-803.
The target is the same in test [14]. The experiment in a line: Inhibition of human TERT-regulated Wnt/beta-catenin signalling in human MGC803 cells assessed as downregulation of beta-catenin protein expression after 48 hrs by Western blotting method. The class given is cell-based. The settings on record: MGC-803.
The target is the same in test [15]. The experiment in a line: Inhibition of human TERT-regulated Wnt/beta-catenin signalling in human MGC803 cells assessed as downregulation of beta-catenin mRNA expression by RT-PCR method. In kind it is cell-based. The settings on record: MGC-803.
Another test relates to MGC-803. As to the kind of experiment: Induction of cell cycle arrest in human MGC803 cells assessed as accumulation at G0/G1 phase at 1 uM after 48 hrs by propidium iodide staining-based flow cytometry (reference value: 32.7%). The class given is functional. (A flow cytometer gives signals particle by particle.)
The target in test [16] is Telomerase reverse transcriptase (Homo sapiens) (UniProt O14746). As to the kind of experiment: Inhibition of human TERT-regulated Wnt/beta-catenin signalling in human MGC803 cells assessed as downregulation of cyclin D1 mRNA expression by RT-PCR method. In kind it is cell-based. The settings on record: MGC-803.
For test [17] the target is unchanged. As to the kind of experiment: Inhibition of human TERT-regulated Wnt/beta-catenin signalling in human MGC803 cells assessed as downregulation of c-myc mRNA expression by RT-PCR method. The settings on record: MGC-803. The class given is cell-based.
For test [18] the target is unchanged. As to the kind of experiment: Inhibition of human TERT expressed in human MGC803 cells assessed as TERT-regulated Wnt/beta-catenin signalling by measuring decrease in c-myc mRNA expression after 48 hrs by RT-PCR method. In kind it is cell-based. Conditions: MGC-803.
Test [19] can be described thus: Cytotoxicity against human GES-1 cells after 48 hrs by MTT assay. Conditions: GES1, 48 h. In kind it is cell-based.
The target of test [20] is Telomerase reverse transcriptase (Homo sapiens) (UniProt O14746). The experiment in a line: Inhibition of human TERT expressed in human MGC803 cells assessed as TERT-regulated Wnt/beta-catenin signalling by measuring decrease in cyclin D1 protein expression after 48 hrs by Western blotting method. The class given is cell-based. The settings on record: MGC-803.
Test [21] has the same target. The experiment in a line: Inhibition of human TERT-regulated Wnt/beta-catenin signalling in human MGC803 cells assessed as downregulation of cyclin D1 protein expression after 48 hrs by Western blotting method. In kind it is cell-based. Conditions: MGC-803.
Test [22] shares this target. As to the kind of experiment: Inhibition of human TERT expressed in human MGC803 cells assessed as TERT-regulated Wnt/beta-catenin signalling by measuring decrease in cyclin D1 mRNA expression after 48 hrs by RT-PCR method. In kind it is cell-based. The settings on record: MGC-803.
The target is the same in test [23]. The experiment in a line: Inhibition of human TERT expressed in human MGC803 cells assessed as TERT-regulated Wnt/beta-catenin signalling by measuring decrease in beta-catenin protein expression after 48 hrs by Western blotting method. In kind it is cell-based. The settings on record: MGC-803.
A short description of test [24]: Cytotoxicity against human L02 cells after 48 hrs by MTT assay. Conditions: L02, 48 h. In kind it is cell-based.
Test [25] addresses Telomerase reverse transcriptase (Homo sapiens) (UniProt O14746). The experiment in a line: Inhibition of human TERT expressed in human MGC803 cells assessed as TERT-regulated Wnt/beta-catenin signalling by measuring decrease in beta-catenin mRNA expression after 48 hrs by RT-PCR method. Conditions: MGC-803. The class given is cell-based.
For test [26] the target is unchanged. The experiment in a line: Inhibition of human TERT expressed in human MGC803 cells assessed as TERT-regulated Wnt/beta-catenin signalling by measuring decrease in c-myc protein expression after 48 hrs by Western blotting method. Conditions: MGC-803. The class given is cell-based.
Test [27] can be described thus: Inhibition of human TERT mRNA expression in human MGC803 cells at […] after 48 hrs by RT-PCR method. The class given is functional, cell-based. Conditions: MGC-803.
Test [28] has as its target Telomerase reverse transcriptase (Homo sapiens) (UniProt O14746). The experiment in a line: Inhibition of human TERT-regulated Wnt/beta-catenin signalling in human MGC803 cells assessed as decrease in c-myc protein expression at […] after 48 hrs by Western blotting method. The class given is cell-based. The settings on record: MGC-803.
Test [29] shares this target. The experiment in a line: Inhibition of human TERT protein expression in human MGC803 cells at […] after 48 hrs by Western blotting method. In kind it is cell-based. Conditions: MGC-803.
The target is the same in test [30]. As to the kind of experiment: Inhibition of human TERT-regulated Wnt/beta-catenin signalling in human MGC803 cells assessed as decrease in beta-catenin mRNA expression at […] after 48 hrs by RT-PCR method. In kind it is cell-based. Conditions: MGC-803.
Test [31] has the same target. The experiment in a line: Inhibition of human TERT-regulated Wnt/beta-catenin signalling in human MGC803 cells assessed as decrease in c-myc mRNA expression at […] after 48 hrs by RT-PCR method. The settings on record: MGC-803. The class given is cell-based.
For test [32] the target is unchanged. As to the kind of experiment: Inhibition of human TERT-regulated Wnt/beta-catenin signalling in human MGC803 cells assessed as decrease in cyclin D1 protein expression at […] after 48 hrs by Western blotting method. The settings on record: MGC-803. The class given is cell-based.
The target is the same in test [33]. The experiment in a line: Inhibition of human TERT-regulated Wnt/beta-catenin signalling in human MGC803 cells assessed as decrease in cyclin-D1 mRNA expression at […] after 48 hrs by RT-PCR method. In kind it is cell-based. Conditions: MGC-803.
Test [34] shares this target. The experiment in a line: Inhibition of human TERT-regulated Wnt/beta-catenin signalling in human MGC803 cells assessed as decrease in beta-catenin protein expression at […] after 48 hrs by Western blotting method. In kind it is cell-based. Conditions: MGC-803.

We go through four molecules from ChEMBL document CHEMBL3784982, “Novel dihydropyrazole-chromen: Design and modulates hTERT inhibition proliferation of MGC-803” (Eur J Med Chem, 2016).

SMILES strings stand for the structures. pIC50: −log10 of the molar value. Calls of active or inactive are those of the source. No cut-off for these calls is given here.

Telomerase reverse transcriptase (Homo sapiens), sequence (O14746 whole entry): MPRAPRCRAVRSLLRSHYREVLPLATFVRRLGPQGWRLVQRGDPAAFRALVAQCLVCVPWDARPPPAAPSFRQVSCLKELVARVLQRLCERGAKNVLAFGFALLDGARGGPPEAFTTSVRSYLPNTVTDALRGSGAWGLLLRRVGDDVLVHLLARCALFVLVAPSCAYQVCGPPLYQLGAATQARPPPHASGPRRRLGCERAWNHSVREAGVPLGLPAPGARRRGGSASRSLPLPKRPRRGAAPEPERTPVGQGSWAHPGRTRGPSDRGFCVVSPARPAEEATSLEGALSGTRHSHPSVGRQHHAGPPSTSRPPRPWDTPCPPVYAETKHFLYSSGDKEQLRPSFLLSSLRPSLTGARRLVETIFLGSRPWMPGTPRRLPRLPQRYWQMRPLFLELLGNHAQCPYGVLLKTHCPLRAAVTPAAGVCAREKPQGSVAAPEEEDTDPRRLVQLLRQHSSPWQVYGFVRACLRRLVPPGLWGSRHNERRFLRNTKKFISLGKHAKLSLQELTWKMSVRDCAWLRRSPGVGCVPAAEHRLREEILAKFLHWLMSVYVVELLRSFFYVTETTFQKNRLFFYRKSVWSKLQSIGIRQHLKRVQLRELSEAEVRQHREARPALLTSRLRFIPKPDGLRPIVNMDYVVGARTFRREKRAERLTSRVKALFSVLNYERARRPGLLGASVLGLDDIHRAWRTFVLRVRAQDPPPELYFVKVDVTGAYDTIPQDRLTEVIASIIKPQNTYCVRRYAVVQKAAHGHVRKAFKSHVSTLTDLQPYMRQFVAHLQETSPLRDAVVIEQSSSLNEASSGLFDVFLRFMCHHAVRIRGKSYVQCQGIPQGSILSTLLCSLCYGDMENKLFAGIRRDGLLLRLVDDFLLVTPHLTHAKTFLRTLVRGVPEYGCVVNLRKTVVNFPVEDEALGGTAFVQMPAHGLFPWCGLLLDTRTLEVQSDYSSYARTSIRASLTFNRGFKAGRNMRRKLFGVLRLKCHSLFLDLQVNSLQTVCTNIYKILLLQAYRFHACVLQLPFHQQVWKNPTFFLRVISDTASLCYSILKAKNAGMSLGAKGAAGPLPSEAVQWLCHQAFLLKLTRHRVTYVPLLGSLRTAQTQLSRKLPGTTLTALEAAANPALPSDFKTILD

Consider `CCc1ccc(-c2nc(CSCC(=O)NCCc3ccccc3)c(C)o2)cc1`, for which the inhibition entry in [1], in test [2], in test [3], in [4], in [5] and in [6] was “Active” each time. Besides, the inhibition entry in [7] and in test [8] was “Active” in each case.
Regarding `COc1cccc2c1C(=O)c1c(O)c3c(c(O)c1C2=O)C[C@@](O)(C(=O)CO)C[C@@H]3O[C@H]1C[C@H](N)[C@H](O)[C@H](C)O1` [DOXORUBICIN], the pIC50 in [9] is 6.10; in test [10] it was 6.00; in [11] it was 5.83; in the test on Bcap37, 5.92.
As for `O=C(CN1CCCCC1)N1N=C(c2ccccc2)CC1c1cc2ccccc2oc1=O` (stereo not given), the inhibition entry in test [12], in test [13], in [14], in [15], in test [16] and in test [17] was “Active” each time. Further, the inhibition result in test [18], in [20], in test [21], in [22], in test [23] and in test [25] was “Active” throughout. Besides, in test [26], the inhibition entry was “Active”. Further, the pIC50 is 6.34 in test [9]; 5.85 in test [10]; 2.64 in test [19]; 2.60 in [24]; 5.39 in test [11]; 5.28 in the test with Bcap37. The Activity with MGC-803 came to 50.6%.
Take `Cc1cn([C@H]2C[C@H](N=[N+]=[N-])[C@@H](CO)O2)c(=O)[nH]c1=O`: the inhibition result in test [27], in test [28], in test [29], in test [30], in [31] and in test [32] was “Active” each time. Further, the inhibition result in test [33] and in [34] was “Active” throughout.

What is called pIC50 is the IC50 on a negative log10 scale, so that one unit is a factor of ten.
